The values that follow come from patent publication US20190047966A1, “NOVEL COMPOUND AND PHARMACOLOGICALLY ACCEPTABLE SALT THEREOF” (MEIJI SEIKA PHARMA CO., LTD., priority 2016, published 2019).

In test [1] the target is T1, human histamine H4 receptor (Homo sapiens, UniProt Q9H3N8).
T1 construct: purchased PerkinElmer Inc; host or cells: CHO-K1
Description: Evaluation of Human H4 Receptor Affinity ([3H]histamine binding). The following applies: inhibition constant Ki, CHO-K1 membrane preparation, read-out: Evaluation of H4 Receptor Affinity. Summed up: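 Radioligand displacement: compound competes with 8.2 nM [3H]histamine at recombinant human H4 receptor in CHO-K1 membranes (Tris-HCl 50 mM pH 7.4, EDTA 1.25 mM; 25 °C, 90 min), with filter-bound radioactivity counted. IC50 was converted to Ki via Cheng-Prusoff (Kd 5.7 nM); 1.0 μM histamine set nonspecific binding.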

Test [2] has as its target human histamine H1 receptor (Homo sapiens, UniProt P35367). Put plainly: Evaluation of Human H1 Receptor Affinity ([3H]pyrilamine binding). Set-up: purchased PerkinElmer Inc; host or cells: CHO-K1. To be noted: inhibition constant Ki, CHO-K1 membrane preparation. Summed up: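 Ki values are Cheng-Prusoff conversions of IC50 (Kd 1.1 nM) from radioligand displacement of 1.2 nM [3H]pyrilamine, with 1.0 μM pyrilamine defining nonspecific binding.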

The structures appear in SMILES notation. Where a name gives a salt, the structure may show the parent alone.

T1 sequence (Q9H3N8 whole entry): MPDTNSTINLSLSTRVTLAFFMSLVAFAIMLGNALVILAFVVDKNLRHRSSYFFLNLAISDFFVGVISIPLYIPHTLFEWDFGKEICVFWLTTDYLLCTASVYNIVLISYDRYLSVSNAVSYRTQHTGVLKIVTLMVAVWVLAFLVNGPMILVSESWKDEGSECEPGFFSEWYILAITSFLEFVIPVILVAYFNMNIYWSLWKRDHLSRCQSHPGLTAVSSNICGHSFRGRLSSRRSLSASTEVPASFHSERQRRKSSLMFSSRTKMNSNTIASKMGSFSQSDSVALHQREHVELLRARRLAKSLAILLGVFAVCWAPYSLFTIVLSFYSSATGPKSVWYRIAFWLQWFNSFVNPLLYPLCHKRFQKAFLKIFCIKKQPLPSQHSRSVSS
Chain of human histamine H1 receptor (P35367 whole entry): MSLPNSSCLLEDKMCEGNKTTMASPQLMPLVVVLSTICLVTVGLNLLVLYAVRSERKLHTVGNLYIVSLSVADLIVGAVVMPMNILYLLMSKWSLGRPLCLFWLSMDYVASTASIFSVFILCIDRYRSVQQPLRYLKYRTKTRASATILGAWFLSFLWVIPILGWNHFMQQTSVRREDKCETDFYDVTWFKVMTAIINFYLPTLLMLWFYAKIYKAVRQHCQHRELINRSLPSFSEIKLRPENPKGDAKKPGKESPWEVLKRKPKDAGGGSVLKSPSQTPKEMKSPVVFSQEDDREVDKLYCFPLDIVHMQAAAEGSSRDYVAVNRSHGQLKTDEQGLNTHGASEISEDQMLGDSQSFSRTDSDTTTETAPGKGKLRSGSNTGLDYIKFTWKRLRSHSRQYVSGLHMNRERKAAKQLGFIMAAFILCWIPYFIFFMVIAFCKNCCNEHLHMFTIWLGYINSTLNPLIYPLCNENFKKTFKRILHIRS

Consider `Nc1nc2c(c(N3CCN(CCCCOc4ccc(C(=O)O)cc4)CC3)n1)CCc1cc(OCc3ccc(Cl)cc3)ccc1-2` [Example 134, 4-(4-(4-(2-amino-8-((4-chlorobenzyl)oxy)-5,6-dihydrobenzo[h]quinazolin-4-yl)piperazin-1-yl)butoxy)benzoic acid hydrochloride], for which the Ki in test [1] was 100 to 500 nM; in test [2], below 100 nM.

In the case of `Nc1nc2c(c(N3CCN(CCOc4ccccc4CC(=O)O)CC3)n1)CCc1cc(OCc3ccc(Cl)cc3)ccc1-2` [Example 136, 2-(2-(2-(4-(2-amino-8-((4-chlorobenzyl)oxy)-5,6-dihydrobenzo[h]quinazolin-4-yl)piperazin-1-yl)ethoxy)phenyl)acetic acid dihydrochloride], the Ki in test [1] was 100 to 500 nM; in test [2] it was below 100 nM.

As to `Nc1nc2c(c(N3CCN(CCOc4ccc(CC(=O)O)cc4)CC3)n1)CCc1cc(OCc3ccc(Cl)cc3)ccc1-2` [Example 137, 2-(4-(2-(4-(2-amino-8-((4-chlorobenzyl)oxy)-5,6-dihydrobenzo[h]quinazolin-4-yl)piperazin-1-yl)ethoxy)phenyl)acetic acid dihydrochloride], the Ki in test [1] and in test [2] was below 100 nM throughout.

Consider `Nc1nc2c(c(N3CCN(CCOCCn4ccc(C(=O)O)n4)CC3)n1)CCc1cc(OCc3ccc(Cl)cc3)ccc1-2` [Example 138, 1-(2-(2-(4-(2-amino-8-((4-chlorobenzyl)oxy)-5,6-dihydrobenzo[h]quinazolin-4-yl)piperazin-1-yl)ethoxy)ethyl)-1H-pyrazole-3-carboxylic acid dihydrochloride], for which the values for the Ki in test [1] and in test [2] were 100 to 500 nM and below 100 nM, respectively.

On to `Nc1nc2c(c(N3CCN(CCc4cccc(OCC(=O)O)c4)CC3)n1)CCc1cc(OCc3ccc(Cl)cc3)ccc1-2` [Example 139, 2-(3-(2-(4-(2-amino-8-((4-chlorobenzyl)oxy)-5,6-dihydrobenzo[h]quinazolin-4-yl)piperazin-1-yl)ethyl)phenoxy)acetic acid dihydrochloride], for which the Ki in test [1] was 100 to 500 nM; in test [2], below 100 nM.

In the case of `Nc1nc2c(c(N3CCN(CCc4ccc(OCC(=O)O)cc4)CC3)n1)CCc1cc(OCc3ccc(Cl)cc3)ccc1-2` [Example 140, 2-(4-(2-(4-(2-amino-8-((4-chlorobenzyl)oxy)-5,6-dihydrobenzo[h]quinazolin-4-yl)piperazin-1-yl)ethyl)phenoxy)acetic acid dihydrochloride], the Ki in test [1] is 100 to 500 nM; in test [2], below 100 nM.

Turning to `Nc1nc2c(c(N3CCN(CCCCOC4CC(C(=O)O)C4)CC3)n1)CCc1cc(OCc3ccc(Cl)cc3)ccc1-2` (stereo not shown) [Example 141, 3-(4-(4-(2-amino-8-((4-chlorobenzyl)oxy)-5,6-dihydrobenzo[h]quinazolin-4-yl)piperazin-1-yl)butoxy)cyclobutane-1-carboxylic acid dihydrochloride], the Ki in test [1] is 100 to 500 nM; in test [2], below 100 nM.

On to `Nc1nc2c(c(N3CCN(CCOCc4nc(C(=O)O)cs4)CC3)n1)CCc1cc(OCc3ccc(OC(F)(F)F)cc3)ccc1-2` [Example 142, 2-((2-(4-(2-amino-8-((4-(trifluoromethoxy)benzyl)oxy)-5,6-dihydrobenzo[h]quinazolin-4-yl)piperazin-1-yl)ethoxy)methyl)thiazole-4-carboxylic acid dihydrochloride], for which the Ki in test [1] and in test [2] was below 100 nM throughout.

Regarding `Nc1nc2c(c(N3CCN(CCCOCc4nnn[nH]4)CC3)n1)CCc1cc(OCc3ccc(Cl)cc3)ccc1-2` [Example 144, 4-(4-(3-((tetrazol-5-yl)methoxy)propyl)piperazin-1-yl)-8-((4-chlorobenzyl)oxy)-5,6-dihydrobenzo[h]quinazolin-2-amine bis(trifluoroacetate)], the Ki in test [1] and in test [2] was below 100 nM throughout.

On to `Nc1nc2c(c(N3CCN(CCCCOCc4nnn[nH]4)CC3)n1)CCc1cc(OCc3ccc(Cl)cc3)ccc1-2` [Example 145, 4-(4-(4-((tetrazol-5-yl)methoxy)butyl)piperazin-1-yl)-8-((4-chlorobenzyl)oxy)-5,6-dihydrobenzo[h]quinazolin-2-amine bis(trifluoroacetate)], for which the Ki in test [1] and in test [2] was below 100 nM in each case.

As for `Nc1nc2c(c(N3CCN(CCO[C@H]4C[C@@H]5[C@H](C4)[C@H]5C(=O)O)CC3)n1)CCc1cc(OCc3ccc(OC(F)(F)F)cc3)ccc1-2` [Example 146, (1R,3r,5S,6r)-3-(2-(4-(2-amino-8-((4-(trifluoromethoxy)benzyl)oxy)-5,6-dihydrobenzo[h]quinazolin-4-yl)piperazin-1-yl)ethoxy)bicyclo[3.1.0]hexane-6-carboxylic acid], the Ki is 100 to 500 nM in test [1] and below 100 nM in test [2].

On to `Nc1nc2c(c(N3CCN(CCO[C@@H]4C[C@@H]5[C@H](C4)[C@H]5C(=O)O)CC3)n1)CCc1cc(OCc3ccc(OC(F)(F)F)cc3)ccc1-2` [Example 147, (1R,3s,55,6r)-3-(2-(4-(2-amino-8-((4-(trifluoromethoxy)benzyl)oxy)-5,6-dihydrobenzo[h]quinazolin-4-yl)piperazin-1-yl)ethoxy)bicyclo[3.1.0]hexane-6-carboxylic acid], for which the Ki in test [1] and in test [2] was below 100 nM throughout.

Turning to `Nc1nc2c(c(N3CCN(CCO[C@@H]4C[C@@H]5[C@H](C4)[C@@H]5C(=O)O)CC3)n1)CCc1cc(OCc3ccc(OC(F)(F)F)cc3)ccc1-2` [Example 148, (1R,3s,5S,6s)-3-(2-(4-(2-amino-8-((4-(trifluoromethoxy)benzyl)oxy)-5,6-dihydrobenzo[h]quinazolin-4-yl)piperazin-1-yl)ethoxy)bicyclo[3.1.0]hexane-6-carboxylic acid], the values for the Ki in test [1] and in test [2] were 100 to 500 nM and below 100 nM, respectively.

For `COC(=O)CC1CN(C(=O)OCCN2CCN(c3nc(N)nc4c3CCc3cc(OCc5ccc(Cl)cc5)ccc3-4)CC2)C1` [Example 149, 2-(4-(2-amino-8-((4-chlorobenzyl)oxy)-5,6-dihydrobenzo[h]quinazolin-4-yl)piperazin-1-yl)ethyl 3-(2-methoxy-2-oxoethyl)azetidine-1-carboxylate], the Ki was 100 to 500 nM in test [1] and below 100 nM in test [2].

Consider `COC(=O)C1CN(C(=O)OCCN2CCN(c3nc(N)nc4c3CCc3cc(OCc5ccc(Cl)cc5)ccc3-4)CC2)C1` [Example 150, 1-(2-(4-(2-amino-8-((4-chlorobenzyl)oxy)-5,6-dihydrobenzo[h]quinazolin-4-yl)piperazin-1-yl)ethyl) 3-methyl azetidine-1,3-dicarboxylate], for which the Ki in test [1] was 100 to 500 nM; in test [2], below 100 nM.

Consider `Nc1nc2c(c(N3CCN(CCOCC45C6C7C4C4C5C6C74C(=O)O)CC3)n1)CCc1cc(OCc3ccc(Cl)cc3)ccc1-2` (stereo not shown) [Example 151, 4-((2-(4-(2-amino-8-((4-chlorobenzyl)oxy)-5,6-dihydrobenzo[h]quinazolin-4-yl)piperazin-1-yl)ethoxy)methyl)pentacyclo[4.2.0.0^2.5.0^3.8.0^4.7]octane-1-carboxylic acid dihydrochloride], for which the Ki in test [1] and in test [2] was below 100 nM each time.

As to `Nc1nc2c(c(N3CCN(CCOC4CC4C(=O)O)CC3)n1)CCc1cc(OCc3ccc(Cl)cc3)ccc1-2` (stereo not shown) [Example 154, 2-(2-(4-(2-amino-8-((4-chlorobenzyl)oxy)-5,6-dihydrobenzo[h]quinazolin-4-yl)piperazin-1-yl)ethoxy)cyclopropane-1-carboxylic acid], the Ki is 100 to 500 nM in test [1] and below 100 nM in test [2].
